The values below come from ChEMBL document CHEMBL5247634, “Design, synthesis and anticancer evaluation of selective 2,4-disubstituted pyrimidine CDK9 inhibitors” (Eur J Med Chem, 2022).

In one experiment the test system is NCI-H1975. The experiment is described as follows: Antiproliferative activity against human NCI-H1975 cells assessed as cell growth inhibition measured after 72 hrs by MTT assay. In kind it is functional, cell-based. To be noted: NCI-H1975, 72 h. (In general: Formazan colour is commonly taken as a measure of viable cells.)
In another experiment the test system is A-431. The experiment can be described thus: Antiproliferative activity against human A-431 cells assessed as cell growth inhibition measured after 72 hrs by MTT assay. In kind it is functional, cell-based. The note with it: A-431, 72 h.
A further experiment deals with PANC-1. The experiment is described as follows: Antiproliferative activity against human PANC-1 cells assessed as cell growth inhibition measured after 72 hrs by MTT assay. The note with it: PANC-1, 72 h. In kind it is functional, cell-based.
Another experiment concerns HCT-116. The experiment is described as follows: Antiproliferative activity against human HCT-116 cells assessed as cell growth inhibition measured after 72 hrs by MTT assay. In kind it is functional, cell-based. To be noted: HCT-116, 72 h.
The next experiment deals with L02. The experiment is described as follows: Antiproliferative activity against human L02 cells assessed as cell growth inhibition measured after 72 hrs by MTT assay. In kind it is functional, cell-based. The note with it: L02, 72 h.
Another experiment concerns the target CDK9/cyclin T1 (Homo sapiens, UniProt P50750). The experiment can be described thus: Inhibition of CDK9/cyclin T1 (unknown origin) using as PDKtide substrate incubated for 1 hr in presence of ATP by ADP-glo luminescent assay. In kind it is protein-complex assay. A general note: In ADP-Glo the light output rises with the ADP produced.
The target of experiment [1] is Cyclin-dependent kinase 2/cyclin A (Homo sapiens, UniProt P24941). The experiment can be described thus: Inhibition of CDK2/cyclin A (unknown origin) incubated for 1 hr in presence of ATP by ADP-glo luminescent assay. In kind it is protein-complex assay.
The species entered for a further experiment is Homo sapiens. The experiment can be described thus: Selectivity index, ratio of IC50 for CDK2/cyclin A (unknown origin) to IC50 for CDK9/cyclin T1 (unknown origin).
The test system of another experiment is A549. The experiment is described as follows: Antiproliferative activity against human A549 cells assessed as cell growth inhibition measured after 72 hrs by MTT assay. In kind it is functional, cell-based. The note with it: A549, 72 h.
The target of experiment [2] is Cyclin-dependent kinase 2 (Homo sapiens, UniProt P24941).
Description: Inhibition of CDK2 (unknown origin)

SMILES strings stand for the structures.

Chain of CDK9/cyclin T1 (O60563 whole entry): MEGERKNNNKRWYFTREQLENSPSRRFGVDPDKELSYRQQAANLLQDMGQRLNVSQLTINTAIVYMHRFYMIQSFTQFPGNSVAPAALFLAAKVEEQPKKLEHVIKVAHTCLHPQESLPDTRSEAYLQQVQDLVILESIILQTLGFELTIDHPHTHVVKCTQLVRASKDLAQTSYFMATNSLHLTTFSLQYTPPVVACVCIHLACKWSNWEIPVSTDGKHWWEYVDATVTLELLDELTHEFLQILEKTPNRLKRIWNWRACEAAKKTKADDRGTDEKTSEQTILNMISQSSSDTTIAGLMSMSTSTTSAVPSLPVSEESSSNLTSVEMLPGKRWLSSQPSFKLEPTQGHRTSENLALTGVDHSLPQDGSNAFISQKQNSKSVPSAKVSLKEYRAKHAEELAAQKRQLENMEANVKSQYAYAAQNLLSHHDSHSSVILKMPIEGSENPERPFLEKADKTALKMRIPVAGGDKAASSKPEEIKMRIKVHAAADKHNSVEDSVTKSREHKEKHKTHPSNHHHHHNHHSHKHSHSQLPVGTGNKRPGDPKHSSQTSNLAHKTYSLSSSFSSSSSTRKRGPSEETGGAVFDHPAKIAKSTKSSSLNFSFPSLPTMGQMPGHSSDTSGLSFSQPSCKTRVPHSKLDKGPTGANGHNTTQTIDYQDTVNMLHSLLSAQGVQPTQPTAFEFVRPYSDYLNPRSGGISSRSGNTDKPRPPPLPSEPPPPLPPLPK
Chain of CDK9/cyclin T1 (P50750 whole entry): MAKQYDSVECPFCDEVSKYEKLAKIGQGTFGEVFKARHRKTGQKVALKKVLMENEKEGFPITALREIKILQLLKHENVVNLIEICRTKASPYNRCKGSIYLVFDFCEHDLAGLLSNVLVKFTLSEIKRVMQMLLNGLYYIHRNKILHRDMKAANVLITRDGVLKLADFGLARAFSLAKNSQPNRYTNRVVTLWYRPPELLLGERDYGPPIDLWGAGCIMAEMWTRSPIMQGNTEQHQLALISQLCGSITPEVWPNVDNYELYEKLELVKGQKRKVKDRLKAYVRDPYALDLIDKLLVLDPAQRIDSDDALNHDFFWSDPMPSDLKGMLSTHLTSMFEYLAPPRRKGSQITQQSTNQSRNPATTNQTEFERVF

One may read the IC50 as the concentration at which inhibition is half-maximal. `CCN(CC)CCNC(=O)c1ccc(Nc2nccc(-c3ccc(F)cc3OCc3ccccc3)n2)cc1`: the IC50 in the experiment with NCI-H1975 was 1.2 µM; in the experiment on A-431, 1.32 µM; with PANC-1, 1.08 µM; with HCT-116, 0.13 µM; in the experiment on L02 it was 3.69 µM; on CDK9/cyclin T1, 0.0267 µM. In addition, the IC50 in experiment [1] came out at 0.796 µM. Also, the Selectivity Index in the experiment listed under Homo sapiens amounted to 29.8.
In the case of `CC(C)N(CCNC(=O)c1ccc(Nc2nccc(-c3ccc(F)cc3OCc3ccccc3)n2)cc1)C(C)C`, the IC50 in the experiment with NCI-H1975 was determined as 0.86 µM; in the experiment with A-431, 0.59 µM; with PANC-1 it was 0.56 µM; in the experiment on HCT-116, 0.37 µM; with L02, 2.08 µM; on CDK9/cyclin T1 it was 0.0596 µM. Besides, the IC50 in experiment [1] was 0.915 µM. Besides, the Selectivity Index in the experiment filed under Homo sapiens worked out at 15.3.
For `O=C(NCCN1CCCCC1)c1ccc(Nc2nccc(-c3ccc(F)cc3OCc3ccccc3)n2)cc1`, the IC50 came out at 8.47 µM with A549; 5.83 µM with NCI-H1975; 1.84 µM in the experiment on A-431; 1.6 µM in the experiment on PANC-1; 1.27 µM with HCT-116; 3.02 µM in the experiment on L02.
With `O=C(c1ccc(Nc2nccc(-c3ccc(F)cc3OCc3ccccc3)n2)cc1)N1CCNCC1`, the IC50 came out at 2.23 µM in the experiment with NCI-H1975; 3.36 µM with A-431; 2.87 µM in the experiment with PANC-1; 2.39 µM in the experiment on HCT-116; 5.71 µM with L02.
`COc1cc(F)ccc1-c1ccnc(NC(=O)[C@H]2CCC[C@@H](NC(C)=O)C2)c1` had a half-maximal inhibitory concentration (IC50) in [2] of 2.46 µM.
With `O=C(NCCCN1CCOCC1)c1ccc(Nc2nccc(-c3ccc(F)cc3OCc3ccccc3)n2)cc1`, the IC50 is 4.04 µM in the experiment with A549; 2.71 µM in the experiment on NCI-H1975; 2.52 µM in the experiment with A-431; 2 µM in the experiment with PANC-1; 2.75 µM in the experiment with HCT-116; 14.5 µM in the experiment with L02.
As to `COc1ccccc1-c1cc(Nc2cccc(CS(N)(=O)=O)c2)ncn1`, in experiment [2], the IC50 is above 2 µM.
Turning to `O=C(O)c1ccc(Nc2nccc(-c3ccc(F)cc3OCc3ccccc3)n2)cc1`, the IC50 with NCI-H1975 was 8.35 µM; in the experiment on A-431 it was 7.28 µM; with PANC-1, 12.7 µM; in the experiment with HCT-116, 9.69 µM; in the experiment on L02 it was 22.2 µM; on CDK9/cyclin T1, 0.0862 µM. Further, the IC50 in experiment [1] worked out at 0.636 µM. Further, the Selectivity Index in the experiment listed under Homo sapiens is 7.4.
As to `CN1CCN(C(=O)c2ccc(Nc3nccc(-c4ccc(F)cc4OCc4ccccc4)n3)cc2)CC1`, the IC50 worked out at 2.38 µM with A549; 1.21 µM in the experiment on NCI-H1975; 1.05 µM in the experiment on A-431; 2.48 µM with PANC-1; 5.56 µM with HCT-116; 5.28 µM in the experiment on L02.
For `COc1cc(F)ccc1-c1ccnc(Nc2ccc(C(=O)NCCN(C)C)cc2)n1`, the IC50 was determined as 4.67 µM in the experiment on A549; 2.17 µM in the experiment on NCI-H1975; 3.69 µM with A-431; 4.58 µM in the experiment on PANC-1; 12.5 µM in the experiment with HCT-116; 20.6 µM in the experiment with L02.
As for `CC(C)(C)OC(=O)N1CCN(C(=O)c2ccc(Nc3nccc(-c4ccc(F)cc4OCc4ccccc4)n3)cc2)CC1`, the IC50 in the experiment with A549 was determined as 1.61 µM; in the experiment on NCI-H1975, 1.74 µM; in the experiment on A-431, 0.73 µM; in the experiment on PANC-1, 0.23 µM; in the experiment on HCT-116, 10.2 µM; with L02 it was 5.69 µM. Moreover, the results for the IC50 (at CDK9/cyclin T1; in experiment [1]) were 0.0855 µM and 0.924 µM, respectively. Moreover, in the experiment listed under Homo sapiens, the Selectivity Index was 10.4.
On to `CNCCNC(=O)c1ccc(Nc2nccc(-c3ccc(F)cc3OC)n2)cc1`, for which the IC50 was determined as 10.1 µM in the experiment with A549; 9.61 µM with NCI-H1975; 6.7 µM in the experiment with A-431; 9.41 µM in the experiment on PANC-1; 16.3 µM in the experiment on HCT-116; 22.7 µM in the experiment on L02.
In the case of `O=C(NCCO)c1ccc(Nc2nccc(-c3ccc(F)cc3OCc3ccccc3)n2)cc1`, the IC50 in the experiment on A549 turned out to be 17.7 µM; in the experiment with NCI-H1975, 19 µM; with A-431 it was 6.33 µM; in the experiment with PANC-1, 7.19 µM; in the experiment on HCT-116, 15.3 µM; with L02, 23.3 µM.
`O=C(NCCN1CCOCC1)c1ccc(Nc2nccc(-c3ccc(F)cc3OCc3ccccc3)n2)cc1`: the IC50 in the experiment with NCI-H1975 stood at 10.6 µM; in the experiment on A-431, 16.6 µM; in the experiment on PANC-1 it was 16.5 µM; in the experiment on HCT-116 it was 18 µM; in the experiment on L02, 18.9 µM.
Consider `CNCCNC(=O)c1ccc(Nc2nccc(-c3ccc(F)cc3OCc3ccccc3)n2)cc1`, for which the IC50 in the experiment with A549 stood at 3.8 µM; with NCI-H1975, 1.15 µM; in the experiment on A-431 it was 2.84 µM; with PANC-1, 3.9 µM; with HCT-116, 3.3 µM; in the experiment with L02, 18.7 µM.
`CC(C)c1c2cc(-c3ccnc(N[C@H]4CC[C@H](NC5CCOCC5)CC4)n3)ccc2nn1C` gave an IC50 in experiment [2] of 0.4 µM.
Consider `COc1cc(F)ccc1-c1ncnc(Nc2cccc(C[S@](C)(=N)=O)c2)n1` [ATUVECICLIB], for which the concentration for half-maximal inhibition (IC50) worked out at 0.72 µM with NCI-H1975; 0.34 µM with A-431; 0.11 µM in the experiment on PANC-1; 0.26 µM with HCT-116; 2.55 µM in the experiment on L02.
For `O=C(NCCF)c1ccc(Nc2nccc(-c3ccc(F)cc3OCc3ccccc3)n2)cc1`, in that order: 28.5 µM, 37.1 µM, 52.5 µM, 17.6 µM and 35.4 µM.
